Like-named read-outs stand apart in the source and are kept apart here.
Experiments:
[1] = system: non-transformed epithelial cells of the mammary gland MCF-10A; experiment: in vitro; format: cell-based, human
[2] = system: human breast cancer cell line MCF-7; experiment: cells; format: cell-based
[3] = system: human breast cancer cell line T-47D; experiment: cells; format: cell-based
[4] = system: triple-negative human breast cancer cell line MDA-MB-231; experiment: cells; format: cell-based
human erythrocytes = experiment: Hemolytic activity; format: cell-based; settings: for IC50: Erythrocyte, 1 h at 37 °C, lysis of 50% of erythrocytes
Method: A total of 450 g of human blood (B(III) Rh+) was used to obtain erythrocytes by centrifuging it three times for 5 min with phosphate-buffered saline (PBS) (pH 7.4) at 4 °C on the centrifuge LABOFUGE 400R (Heraeus, Hanau, Germany). Ice-cold PBS (pH 7.4) was used for resuspension of the erythrocyte residue to a final optical density of 1.5 at 700 nm, which was kept on ice. Then, 20 µL of the tested compound solutions was added to 180 µL of the erythrocyte suspension in V-bottom 96-well plates and exposed for 1 h at 37 °C. The layers were separated by centrifugation at 900 g for 10 min on the laboratory centrifuge LMC-3000 (Biosan, Riga, Latvia). A total of 100 µL of the supernatant was carefully decanted and transferred into a new flat plate. The values of erythrocyte lysis were measured on a microplate photometer Multiskan FC (Thermo Fisher Scientific, Waltham, MA, USA) at λ = 570 nm as the hemoglobin concentration in the supernatant. […] All the experiments were carried out in triple repetitions; p ≤ 0.05.

in vitro = format: cell-based, human; settings: human
[5] = Homo sapiens, MCF7, 24 h, read-out: Cytotoxicity, IC50 µM MCF-7
[6] = Homo sapiens, T47D, 24 h, read-out: Cytotoxicity, IC50 µM T-47D
[7] = Homo sapiens, MDA-MB-231, 24 h, read-out: Cytotoxicity, IC50 µM MDA-MD-231

## C=C(C)CCC[C@]1(C)OC(=O)[C@]23CC=C4[C@@H](CC[C@H]5C(C)(C)[C@@H](O[C@@H]6OC[C@@H](O[C@@H]7O[C@H](COS(=O)(=O)O)[C@@H](OS(=O)(=O)O)[C@H](O)[C@H]7O)[C@H](O)[C@H]6O[C@@H]6O[C@H](C)[C@@H](O[C@@H]7O[C@H](COS(=O)(=O)O)[C@@H](O)[C@H](O[C@@H]8O[C@H](COS(=O)(=O)O)[C@@H](O)[C@H](OC)[C@H]8O)[C@H]7O)[C@H](O)[C@H]6O)CC[C@]45C)[C@]2(C)CC(=O)[C@@H]31 [psolusoside P (8), psolusoside P]
[1]
  IC50: > 50 µM
[2]
  IC50: > 50 µM
[3]
  IC50: 37.1 ± 0.83 µM
[4]
  IC50: 33.3 ± 1.31 µM

## C=C(C)CCC[C@](C)(OC(C)=O)[C@H]1[C@@H]2C[C@@]3(C)C4=CC[C@H]5C(C)(C)[C@@H](O[C@@H]6OC[C@@H](O[C@@H]7O[C@H](CO)[C@@H](O)[C@H](O)[C@H]7OS(=O)(=O)[O-])[C@H](O)[C@H]6O[C@@H]6O[C@H](CO)[C@@H](O[C@@H]7O[C@H](COS(=O)(=O)[O-])[C@@H](O)[C@H](O)[C@H]7O)[C@H](O)[C@H]6O)CC[C@]5(C)C4CC[C@]13C(=O)O2.[Na+].[Na+] (stereo partly drawn) [psolusoside B (3), psolusoside B]
Human erythrocytes
  hemolytic activity (result in words): almost not active
  IC50: 74.6 ± 1.21 µM
In vitro
  IC50 at 24 h: > 50 µM
[2]; [5]
  IC50: > 50 µM
[3]; [6]
  IC50: > 50 µM
[4]; [7]
  IC50: > 50 µM

## C=C(C)CCC[C@]1(C)OC(=O)[C@]23CC=C4[C@@H](CC[C@H]5C(C)(C)[C@@H](O[C@@H]6OC[C@@H](O[C@@H]7O[C@H](COS(=O)(=O)O)[C@@H](O)[C@H](O)[C@H]7O)[C@H](O)[C@H]6O[C@@H]6O[C@H](CO)[C@@H](O[C@@H]7O[C@H](COS(=O)(=O)O)[C@@H](O)[C@H](O[C@@H]8O[C@H](COS(=O)(=O)O)[C@@H](O)[C@H](OC)[C@H]8O)[C@H]7O)[C@H](O)[C@H]6O)CC[C@]45C)[C@]2(C)CC(=O)[C@@H]31 [psolusoside N (7), psolusoside N]
[1]
  IC50: > 50 µM
[2]
  IC50: > 50 µM
[3]
  IC50: > 50 µM
[4]
  IC50: 39.3 ± 2.89 µM

## C=C(C)CCC[C@]1(C)OC(=O)[C@]23CCC4C(=CC[C@H]5C(C)(C)[C@@H](O[C@@H]6OC[C@@H](O[C@@H]7O[C@H](COS(=O)(=O)O)[C@@H](O)[C@H](O)[C@H]7O)[C@H](O)[C@H]6O[C@@H]6OC[C@@H](O[C@@H]7O[C@H](COS(=O)(=O)O)[C@@H](O)[C@H](O)[C@H]7O)[C@H](O)[C@H]6O)CC[C@]45C)[C@]2(C)C[C@H](OC(C)=O)[C@@H]31 (stereo partly drawn) [psolusoside I (5), psolusoside I]
Human erythrocytes
  IC50: 8.49 ± 0.49 µM
In vitro
  IC50 at 24 h: > 50 µM
[2]; [5]
  IC50: > 50 µM
[3]; [6]
  IC50: 19.6 ± 0.61 µM
[4]; [7]
  IC50: 33.1 ± 0.85 µM

## C=C(C)CCC[C@]1(C)OC(=O)[C@]23CC[C@@H]4C(=CC[C@H]5C(C)(C)[C@@H](O[C@@H]6OC[C@@H](O[C@@H]7O[C@H](CO)[C@@H](O)[C@H](O)[C@H]7OS(=O)(=O)[O-])[C@H](O)[C@H]6O[C@@H]6O[C@H](CO)[C@@H](O[C@@H]7O[C@H](COS(=O)(=O)[O-])[C@@H](O)[C@H](O)[C@H]7O)[C@H](O)[C@H]6O)CC[C@]45C)[C@]2(C)CC(=O)[C@@H]31.[Na+].[Na+] [peronioside A (1), 3β-O-{6-O-sodium-sulfate-β-D-glucopyranosyl-(1→4)-β-D-glucopyranosyl-(1→2)-[2-O-sodium-sulfate-β-D-glucopyranosyl-(1→4)]-β-D-xylopyranosyl}-16-oxoholosta-7,25-diene]
Human erythrocytes
  hemolytic activity (result in words): moderate hemolytic activity
  IC50: 30.8 ± 1.01 µM
In vitro
  IC50 at 24 h: > 50 µM
[2]; [5]
  IC50: > 50 µM
[3]; [6]
  IC50: > 50 µM
[4]; [7]
  IC50: > 50 µM

## C=C(C)CCC[C@]1(C)OC(=O)[C@]23CC=C4[C@@H](CC[C@H]5C(C)(C)[C@@H](O[C@@H]6OC[C@@H](O)[C@H](O)[C@H]6O[C@@H]6O[C@H](CO)[C@@H](O[C@@H]7O[C@H](COS(=O)(=O)O)[C@@H](O)[C@H](O[C@@H]8O[C@H](COS(=O)(=O)O)[C@@H](O)[C@H](OC)[C@H]8O)[C@H]7O)[C@H](O)[C@H]6O)CC[C@]45C)[C@]2(C)CC(=O)[C@@H]31 [psolusoside G (4), psolusoside G]
Human erythrocytes
  IC50: 2.7 ± 0.09 µM
In vitro
  IC50 at 24 h: > 50 µM
[2]; [5]
  IC50: 11.4 ± 0.36 µM
[3]; [6]
  IC50: 16 ± 1.17 µM
[4]; [7]
  IC50: 11 ± 0.36 µM
